Consider two molecules from US12258368B2, “Disulfide-linked reversible terminators” (CENTRILLION TECHNOLOGY HOLDINGS CORPORATION, priority 2018, dated 2025).

The assay concerns DNA polymerase ("CENT1"). The assay is described as follows: Enzymatic incorporation (primer extension) into a growing DNA chain, with runaway reaction. Type of assay: biochemical. Particulars: for blockage of further extension after incorporation of the terminator: "runaway" reaction in the presence of all four unmodified dNTPs and a polymerase, lane 4; for further extension by the next base added after the cleavage: lane 6; for enzymatic incorporation: in the presence of DNA polymerase ("CENT1"), lane 3.

As to `CC(=O)SCO[C@H]1C[C@H](n2cc(C#CCNC(=O)OC(C)(C)C)c(=O)[nH]c2=O)O[C@@H]1COP(=O)(O)OP(=O)(O)OP(=O)(O)O` [compound 60, S-((((2R,3S,5R)-5-(5-(3-((tert-butoxycarbonyl)amino)prop-1-yn-1-yl)-2,4-dioxo-3,4-dihydropyrimidin-1 (2H)-yl)-2-(((hydroxy((hydroxy(phosphonooxy)phosphoryl)oxy)phosphoryl)oxy)methyl)tetrahydrofuran-3-yl)oxy)methyl) ethanethioate], the “blockage of further extension after incorporation of the terminator” value is “blockage of further extension after incorporation of the terminator”, the “further extension by the next base added after the cleavage” value is “further extension by the next base added” and the enzymatic incorporation result is “can be used in enzymatic incorporation”.

`CSSCO[C@@H]1C[C@H](n2cc(C#CCNC(=O)OCCSSCCNC(=O)c3ccc(C4=c5cc6c(cc5Oc5cc7c(cc54)C(CS(=O)(=O)O)=CC(C)(C)N7)=NC(C)(C)C=C6CS(=O)(=O)O)cc3C(=O)O)c(=O)[nH]c2=O)O[C@@H]1COP(=O)(O)OP(=O)(O)OP(=O)(O)O` [compound 75, (6-(3-carboxy-4-((2-((2-(((3-(1-((2R,4R,5R)-5-(((hydroxy((hydroxy(phosphonooxy)phosphoryl)oxy)phosphoryl)oxy)methyl)-4-((methyldisulfaneyl)methoxy)tetrahydrofuran-2-yl)-2,4-dioxo-1,2,3,4-tetrahydropyrimidin-5-yl)prop-2-yn-1-yl)carbamoyl)oxy)ethyl)disulfaneyl)ethyl)carbamoyl)phenyl)-2,2,10,10-tetramethyl-8-(sulfomethyl)-10,11-dihydro-2H-pyrano[3,2-g:5,6-g′]diquinolin-1-ium-4-yl)methanesulfonate]: the “blockage of further extension after incorporation of the terminator” value was “excellent blockage”, the “further extension by the next base added after the cleavage” value is reported as “further extension with on base added” and the enzymatic incorporation entry is “excellent enzymatic incorporation”. The “continued extension in a "runaway" reaction after cleavage” value (all four unmodified dNTPs and a DNA polymerase, FIG. 4 lanes 7 and 8) is “continued extension”.
